Experimental data from patent publication US20060025485A1, “Hydroxybenazamide compounds for treatment of cancer” (priority 2004, published 2006).
“Also recorded” adds a separate entry of the source.

Tests used:
[1] = system: HT-29 cells, a colon cancer cell line; assay: cell morphology after 9-day treatment, HT-29 cells; assay type: cell-based
Description: (§1) The results were assay using standard MTT, Western blot and cytoxocity assays.

[2] = system: MiaPaCa-2; assay: cell morphology after 9-day treatment, MiaPaCa-2 cells; assay type: cell-based
Description: as §1

[3] = system: BON pancreatic carcinoid cells; assay: cell culture pictures of BON cells; assay type: cell-based, human; settings: 100 μM, 4 days, versus DMSO alone
Method: Cell culture. Human pulmonary carcinoid cells (NCI-H727) were obtained from American Type Culture Collection (Manassas, Va.) and human pancreatic carcinoid tumor cells, BON a generous gift of Drs. Evers and Townsend (Parekh et al., 1994), were maintained in RPMI 1640 and D-MEM-F12 media (Life Technologies, Rockville, Md.) respectively supplemented with 10% Fetal Bovine Serum (Sigma, St. Louis, Mo.), 100 IU/ml penicillin and 100 μg/ml streptomycin (Life Technologies) in a humidified atmosphere of 5% CO2 in air at 37° C. The maintenance of BON-raf cells and the activation of Raf-1 were followed as described previously (Sippel et al., 2003; Sippel and Chen, 2002; McMahon, 2001).
(§2) ZM 336372 treatment. H727 and BON cells were plated at 50-60% confluence in 100 mm cell culture dishes and incubated overnight.

[4] = system: HepG2; assay: HepG2 MTT Assay; assay type: cell-based; settings: HepG2, three concentrations
Method: FIG. 18—HepG2 MTT Assay. The MTT assay is a laboratory test for measuring cellular proliferation (cell growth). MTT is added to a cell culture and is modified into a dye by enzymes associated with metabolic activity in a live cell. MTT is short for 3-(4,5-dimethylthiazol-2-yl)-2,5-diphenyltetrazolium bromide.
as §1

[5] = system: TT medullary thyroid cancer cells; assay: MTT assay, TT cells; assay type: cell-based; settings: 100 μM, versus DMSO
[6] = system: Chromogranin A; assay: Western analysis of CgA, H727 cells; assay type: cell-based, human
Method: as §2
(§3) Western blot analysis. Cellular extracts were prepared and quantified by BCA protein assay kit (Pierce, Rockford, Ill.) as previously described (Sippel et al., 2003). 30-50 μg of denatured proteins from each sample underwent electrophoresis on a SDS-polyacrylamide gel and transferred to a nitrocellulose membranes (Schleicher and Schuell, Keene, N.H.). Membranes were blocked for 1 hr in milk solution (1×PBS, 5% non-fat dry milk, 0.05% Tween-20) and then incubated at 4° C. overnight with primary antibodies. The following primary antibody dilutions were used: phospho-ERK 1/2 (1:1,000); phospho-MEK (1:1,000); phospho-Raf-1 (Serine338) (1:1,000); p21 and p18, (1:1,000); (Cell Signal Technology, Beverly, Mass.), Chromogranin A (1:2,000; Zymed Laboratories, San Francisco, Calif.); MASH-1 (1:1000, BD Pharmingen) and G3PDH (1:10,000; Trevigen, Gaithersburg, Md.). After primary antibody incubation, membranes were washed 3×5 min in PBS-T wash buffer (1×PBS, 0.05% Tween 20). Then the membranes were incubated with either 1:2,000 dilution of goat anti-rabbit or goat anti-mouse secondary antibody (Cell Signal Technology, Beverly, Mass.) depending on the source of the primary antibody for 1 hr at room temperature. Membranes were washed 3×5 min in PBS-T wash buffer and developed by Immunstar™ HRP (Bio-Rad Laboratories, Hercules, Calif.) according to the manufacturer's directions. For the detection of hASH1 protein, membranes were developed with SuperSignal West Femto chemiluminescence reagent (Pierce).

[7] = system: p18; assay: Western analysis of cell cycle inhibitor p18, H727 cells; assay type: cell-based, human; settings: 20 μM and 100 μM, 2 days
Method: as §2
as §3, with “Membranes were washed 3×5 min in PBS-T wash buffer and developed by Immunstar™ HRP (Bio-Rad Laboratories, Hercules, Calif.) according to the manufacturer's directions. For the detection of hASH1 protein, membranes were developed with SuperSignal West Femto chemiluminescence reagent (Pierce).” left out

[8] = system: H727 pulmonary carcinoid cells; assay: MTT cell proliferation assay, H727 cells; assay type: cell-based, human; settings: 100 μM, to day 16, versus DMSO
Method: MTT Cell Proliferation Assay. […] Cells were trypsinized and plated in triplicate to 24 wells plates and allowed to adhere overnight. […] Cells were incubated and maintained with change of treatments at 2 days. Cell growth rates were analyzed after the addition of MTT reagent to the cultured cells following manufacturer's instructions. Absorbance was determined using spectrophotometer at a wave length of 540 nm.

[9] = system: p21; assay: Western analysis of cell cycle inhibitor p21, H727 cells; assay type: cell-based, human; settings: 20 μM and 100 μM, 2 days
Method: as §2
as §3, with “Membranes were washed 3×5 min in PBS-T wash buffer and developed by Immunstar™ HRP (Bio-Rad Laboratories, Hercules, Calif.) according to the manufacturer's directions. For the detection of hASH1 protein, membranes were developed with SuperSignal West Femto chemiluminescence reagent (Pierce).” left out

[10] = system: Panc-1 cells; assay: cell morphology after 9-day treatment, Panc-1 cells; assay type: cell-based; settings: Panc-1, 100 μM, 9-day cycle
Description: as §1

[11] = system: HT-29; assay: HT-29 MTT Assay; assay type: cell-based; settings: HT-29, varying concentrations
[12] = system: hASH1; assay: Western analysis of hASH1, H727 cells; assay type: cell-based, human
Method: as §2
as §3, with “Membranes were washed 3×5 min in PBS-T wash buffer and developed by Immunstar™ HRP (Bio-Rad Laboratories, Hercules, Calif.) according to the manufacturer's directions. For the detection of hASH1 protein, membranes were developed with SuperSignal West Femto chemiluminescence reagent (Pierce).” left out

[13] = Drug toxicity assay, propidium iodide exclusion, BON cells; assay type: cell-based; settings: human, 63 to 500 μM, read-out: viable cells by PI exclusion
Method: Drug Toxicity Assay. Briefly, cells were trypsinized and plated in a 6-well plate at 1-2×10^6 in triplicate and allowed to adhere overnight. […] As a control, DMSO was added. After incubation, the media was removed and cells were trypsinized and added to removed media. Cells were incubated on ice and 2.5 μg/ml Propidium Iodide (Sigma, St. Louis, Mo.) was added five minutes before flow cytometry (Ballestrero et al., 2004). Data was acquired using a FACSCalibur benchtop flow cytometer (Becton Dickenson, San Jose, Calif.) using CellQuest acquisition and analysis software.

## Cc1ccc(NC(=O)c2cccc(N(C)C)c2)cc1NC(=O)c1ccc(O)cc1 [ZM336372, N-[5-(dimethyl-aminobensamido)-2-methylphenyl]-4-hydroxybenzamide]
[1]; HT-29, 100 μM, 9-day cycle
  cell death: significant cell death
[1]; HT-29, 50 microM, day 9, versus control
  number of cells in culture: dramatic difference in the number of cells present at day 9
[1]; HT-29, low concentrations, 9-day cycle
  cytopathology: cytopathology at low concentrations
[2]; MiaPaCa-2, 100 μM, 9-day cycle
  cell death: significant cell death
[2]; MiaPaCa-2, 100 microM, day 9
  cell numbers in culture: dramatic decrease in cell numbers
[3]
  growth of BON cells in culture: dramatic growth arrest; also recorded: clear difference in growth
[4]
  cellular proliferation (MTT): effects at low concentrations; also recorded: reduction in cellular proliferation
[5]
  growth of TT cells (MTT): clear suppression of growth
[6]; 20 μM and 100 μM, 2 days
  CgA level: reduction in both CgA and hASH1; also recorded: dose dependent decrease
[6]; 100 μM, 10 minutes to 48 hours
  time of earliest detected reduction of CgA: 1 h
  time of greatest comparative loss of CgA: 48 h
[6]; 100 μM, days 2, 4 and 6
  CgA level over days: decrease in chromogranin; also recorded: CgA depletion was maintained to 6 days; also recorded: persistent reduction of CgA to day 6
[7]
  p18 expression: induced; also recorded: significant induction
[8]
  H727 cell proliferation (MTT): clear suppression of growth; also recorded: growth suppressed; also recorded: inhibited
[9]
  p21 expression: induced; also recorded: significant induction
[10]
  cell death: significant cell death
[11]
  cellular proliferation (MTT): effects at low concentrations; also recorded: effective at decreasing cellular proliferation
[12]; 20 μM and 100 μM, 2 days
  hASH1 level: reduction in both CgA and hASH1; also recorded: dose dependent decrease
[12]; 100 μM, 10 minutes to 48 hours
  time of first recognized reduction of hASH1: 1 h
[13]
  viability at 2 days: ~70%
